From article PMC11637378, “Optogenetic screening of MCT1 activity implicates a cluster of non-steroidal anti-inflammatory drugs (NSAIDs) as inhibitors of lactate transport” (PLOS ONE, 2024)
Values joined by “and” are separate entries in the source; they are usually repeats but may differ in a detail not shown here. Equal values may be shown once. Read-outs that look alike come from different tables or passages of the source.

How the values were obtained:
parent strain (SAWy518) [1] = test system: parent strain (SAWy518)
parent strain (SAWy518) [2] = assay: Off-target control in IC50 determination: growth of light-insensitive parent strain at each inhibitor concentration; type: cell-based, Saccharomyces cerevisiae; details: at the dosages used in this study
MCT1 = details: cited from earlier work; for MCT1 inhibitor annotation: NOTES/Group column, ref not given
[3] = cited from earlier work
cancer cell growth = details: cited from earlier work
parent strain (SAWy518) [4] = assay: microbe, parasite or virus in culture; design: species or system Saccharomyces cerevisiae SAWy518; Off-target growth counter-screen, OD600 as per cent of untreated wells, strain lacking MCT1; details: 18.5 h; sheet Primary Screen - final;; off-target growth of parent strain, about 18 h

Row | SMILES | OffScreen_percentage (parent strain (SAWy518) [1]) [percentage] | Offscreen_18hr (parent strain (SAWy518) [1]) | Offscreen_24hr (parent strain (SAWy518) [1]) | Offscreen_42hr (parent strain (SAWy518) [1]) | Read_percentage (parent strain (SAWy518) [1]) | off-target toxicity (parent strain (SAWy518) [2]) | MCT1 inhibitor annotation (MCT1; library annotation) | Known MCT1 inhibitor (MCT1; library annotation) | IC50 (MCT1; read-out: previously reported inhibition value for MCT1 (IC50)) [nM] | blood-plasma concentration ([3]; 150–200 mg daily) [µM] | concentrations of in vitro anticancer activity (cancer cell growth) [µM] | blood-plasma concentration ([3]; 20 mg/day) [µM] | viability at 10 µM (parent strain (SAWy518) [4]) [%] | MCT1 inhibition (annotation) (MCT1; library annotation)
1 | CC1=C(CC(=O)O)c2cc(F)ccc2/C1=C\c1ccc([S+](C)[O-])cc1 (stereo not shown) [Sulindac, reference compound] | 103.073 | 0.8318 | 0.9131 | 0.9739 | 103.073 | do not exhibit off-target toxicity |  |  |  |  |  |  |  | 
2 | O=c1c(O)c(-c2ccc(O)c(O)c2)oc2cc(O)cc(O)c12 [Quercetin, reference compound] | 96.0719 | 0.7753 | 0.8789 | 0.9377 | 96.0719 percentage |  | Known MCT1 inhibitor, PI3-K and PDE inhibitor (flavanoid) | Known MCT1 inhibitor, PI3-K and PDE inhibitor (flavanoid) |  |  |  |  |  | 
3 | CC(C(=O)O)c1cccc(C(=O)c2ccccc2)c1 (stereo not shown) [Ketoprofen] |  |  |  |  |  | do not exhibit off-target toxicity |  |  |  |  |  |  |  | 
4 | O=C(O)Cc1ccccc1Nc1c(Cl)cccc1Cl [Diclofenac, reference compound] | 100.855 | 0.8139 | 0.8825 | 0.9387 | 100.855 percentage |  |  |  | 1400 | 6.1 |  |  |  | 
5 | CN1C(C(=O)Nc2ccccn2)=C(O)c2ccccc2S1(=O)=O [Piroxicam, reference compound] | 95.2292 | 0.7685 and 0.7781 | 0.8625 and 0.86 | 0.9267 and 0.9178 | 95.2292 percentage |  |  |  |  |  | 25 to 30 | 16 to 20 |  | 
6 | C/C=C(/C(=C/C)c1ccc(O)cc1)c1ccc(O)cc1 [Dienestrol] | 99.2565 | 0.801 | 0.8973 | 0.9599 | 99.2565 percentage |  |  |  |  |  |  |  | 99.3 | 
7 | COc1ncc(-c2ccc3nccc(-c4ccnnc4)c3c2)cc1NS(=O)(=O)c1ccc(F)cc1F [GSK2126458] | 90.1487 | 0.7275 | 0.8997 | 0.9503 | 90.1487 percentage |  |  |  |  |  |  |  | 90.1 | 
8 | CCCCC1=NC2(CCCC2)C(=O)N1Cc1ccc(-c2ccccc2-c2nnn[nH]2)cc1 [Irbesartan] | 100.942 | 0.8146 | 0.8985 | 0.9579 | 100.942 percentage |  |  |  |  |  |  |  | 101 | 
9 | Cc1cc(C(C)(C)CC(C)(C)C)ccc1OCCOCC[N+](C)(C)Cc1ccccc1 [Methylbenzethonium] | 95.9727 | 0.7745 | 0.875 | 0.932 | 95.9727 percentage |  |  |  |  |  |  |  | 96 | 
10 | Cc1ccc(S(=O)(=O)N[C@@H](Cc2ccccc2)C(=O)CCl)cc1 [TCPK] | 91.0409 | 0.7347 | 0.8725 | 0.9353 | 91.0409 |  |  |  |  |  |  |  | 91 | 
11 | CC(C)(Oc1ccc(C2CC2(Cl)Cl)cc1)C(=O)O (stereo not shown) [Ciprofibrate] | 92.3916 | 0.7456 | 0.866 | 0.9088 | 92.3916 percentage |  |  |  |  |  |  |  | 92.4 | 
12 | COc1ccc(CCN(C)CCCOc2ccc(S(=O)(=O)c3c(C(C)C)c4ccccc4n3C)cc2)cc1OC.O=C(O)C(=O)O [SR-33805] | 95.9851 | 0.7746 | 0.9061 | 0.9635 | 95.9851 |  |  |  |  |  |  |  | 96 | 
13 | CC(C)(C)CC(C)(C)c1ccc(OCCOCC[N+](C)(C)Cc2ccccc2)cc1 [Benzethonium] | 95.2045 | 0.7683 | 0.892 | 0.9542 | 95.2045 percentage |  |  |  |  |  |  |  | 95.2 | 
14 | CCOC(=O)[C@@H](N)Cc1ccc(-c2cc(O[C@H](c3ccc(Cl)cc3-n3ccc(C)n3)C(F)(F)F)nc(N)n2)cc1.O=C(O)CNC(=O)c1ccccc1 [Telotristat Etiprate] | 96.9393 | 0.7823 | 0.9107 | 0.9681 | 96.9393 |  |  |  |  |  |  |  | 96.9 | 
15 | O=c1c(O)c(-c2ccc(O)c(O)c2)oc2cc(O)cc(O)c12 [Quercetin dihydrate] |  | 0.7753 | 0.8789 | 0.9377 |  |  |  |  |  |  |  |  |  | Known MCT1 inhibitor, PI3-K and PDE inhibitor (flavanoid)
16 | O=c1cc(O)cc(/C=C/c2ccc(O)c(O)c2)o1 [Hispidin] | 97.0508 | 0.7832 | 0.8897 | 0.9435 | 97.0508 percentage |  |  |  |  |  |  |  | 97.1 | 
17 | O=c1c(O)c(-c2ccc(O)c(O)c2)oc2cc(O)cc(O)c12 [Quercetin (Sophoretin)] |  | 0.7827 | 0.8834 | 0.9444 |  |  |  |  |  |  |  |  |  | PI3K, PKC, Src, Sirtuin inhibitor, MCT1 inhibitor - flavanoid
18 | COc1c(O)cc2oc3cc(O)c(CC=C(C)C)c(O)c3c(=O)c2c1CC=C(C)C [alpha-mangostin] | 89.9628 | 0.726 | 0.8801 | 0.9296 | 89.9628 percentage |  |  |  |  |  |  |  | 90 | 
19 | CCN(CC)C(=O)C1(c2ccccc2)CC1CN (stereo not shown) [Milnacipran] | 104.87 | 0.8463 | 0.9181 | 0.9801 | 104.87 percentage |  |  |  |  |  |  |  | 105 | 
20 | O=C(C1CCCCC1)N1CC(=O)N2CCc3ccccc3C2C1 (stereo not shown) [Praziquantel] | 99.8637 | 0.8059 | 0.8815 | 0.9399 | 99.8637 percentage |  |  |  |  |  |  |  | 99.9 | 
21 | CCCN1CCCC[C@H]1C(=O)Nc1c(C)cccc1C [Ropivacaine] | 101.016 | 0.8152 | 0.8959 | 0.9539 | 101.016 |  |  |  |  |  |  |  | 101 | 
22 | CC/C(=C(/CC)c1ccc(O)cc1)c1ccc(O)cc1 [Diethylstilbestrol] | 102.565 | 0.8277 | 0.9171 | 0.9776 | 102.565 percentage |  |  |  |  |  |  |  | 103 | 
23 | CC(C(=O)O)c1ccc2c(c1)[nH]c1ccc(Cl)cc12 (stereo not shown) [Carprofen] | 90.223 | 0.7281 | 0.8523 | 0.8964 | 90.223 percentage |  |  |  |  |  |  |  | 90.2 | 
24 | Cc1ccc(C(=O)Nc2ccc(CN3CCN(C)CC3)c(C(F)(F)F)c2)cc1C#Cc1cnc2[nH]ncc2c1 [GZD824] | 97.8563 | 0.7897 | 0.9473 | 1.0006 | 97.8563 percentage |  |  |  |  |  |  |  | 97.9 | 
25 | C=CCc1ccc(O)c(-c2ccc(O)c(CC=C)c2)c1 [Honokiol] | 92.7385 | 0.7484 | 0.875 | 0.9267 | 92.7385 percentage |  |  |  |  |  |  |  | 92.7 | 
26 | CC1(C)O[C@@H]2C[C@H]3[C@@H]4C[C@H](F)C5=CC(=O)C=C[C@]5(C)[C@H]4[C@@H](O)C[C@]3(C)[C@]2(C(=O)CO)O1 [Flunisolide] | 95.601 | 0.7715 | 0.8893 | 0.9469 | 95.601 percentage |  |  |  |  |  |  |  | 95.6 | 
27 | c1ccc2c(c1)Nc1ccccc1S2 [Phenothiazine] | 91.2763 | 0.7366 | 0.8896 | 0.9316 | 91.2763 percentage |  |  |  |  |  |  |  | 91.3 | 
28 | CCC(C)n1ncn(-c2ccc(N3CCN(c4ccc(OCC5COC(Cn6cncn6)(c6ccc(Cl)cc6Cl)O5)cc4)CC3)cc2)c1=O (stereo not shown) [Itraconazole] | 90.9418 | 0.7339 | 0.8546 | 0.8998 | 90.9418 percentage |  |  |  |  |  |  |  | 90.9 | 
29 | COc1cc(C)c2c(=O)cc(-c3ccccc3)oc2c1 [Methoxyvone] | 95.2292 | 0.7685 | 0.8867 | 0.9442 | 95.2292 percentage |  |  |  |  |  |  |  | 95.2 | 
30 | O=C(CCc1ccc(O)cc1)c1c(O)cc(O)cc1O [Phloretin] | 94.4238 | 0.762 | 0.892 | 0.9541 | 94.4238 percentage |  | MCT1 inhibitor |  |  |  |  |  | 94.4 | 
